This is an account of results in patent US5328913A, “Minoxidil analogs as inhibitors of cell proliferation and lysyl hydroxylase” (priority 1992, dated 1994).

Assay [1] concerns prolyl hydroxylase. The experiment in a line: Prolyl hydroxylase activity in fibroblasts treated with minoxidil and its hydroxy derivatives (Example 3). It counts as cell-based, human. The settings on record: 1 mM. The protocol:
Culture of human skin fibroblasts derived from an apparently normal adult were grown to confluent densities in Dulbecco's modified Eagle's medium supplemented with 10% (v/v) fetal calf serum. Thereafter, the medium was replaced with medium supplemented with 0.5% dialyzed fetal calf serum. The cultures were treated for 72 hr with 1 mM minoxidil, 3'- hydroxyminoxidil,or 4'-hydroxyminoxidil (Upjohn) dissolved in aqueous medium. In some experiments, minoxodil was dissolved in 95% (v/v) ethanol; the final concentration of minoxidil was 0.3 mM and that of ethanol was 0.3%. Cultures treated with ethanol only served as the control.
During the last 3 hr of treatment, cultures received 100 μM ascorbic acid. The enzyme activities in extracts of treated cells were measured by tritium-release assays described previously (Murad and Pinnell, J. Biol. Chem. 262:11,973 (1987)).

The test system of assay [2] is lysyl hydroxylase. Description: Lysyl hydroxylase activity in extracts of treated human skin fibroblasts (Example 2, pyridine, triazine and N-alkyl analogs). Format: cell-based. The protocol:
Cells were treated for 72 hr with minoxidil or its triazine analog at the indicated concentrations. The enzyme activities in extracts of treated cells were measured by tritium release assays (Murad and Pinnell, J. Biol. Chem. 262:11,973 (1987)) and are expressed as a percentage of zero-concentration values. PH, prolyl hydroxylase; LH, lysyl hydroxylase.
Cells were treated for 72 hr with various concentrations of minoxidil or its N-alkyl analogs as indicated. The enzyme activity in extracts of treated cells was measured by tritium release assays (Murad and Pinnell, J. Biol. Chem. 262:11,973 (1987)) and is expressed as a percentage of zero-concentration value. The minoxidil curve is reproduced from FIG. 4.
Cultures of human skin fibroblast (1.5×10^6 cells) were seeded onto 100-mm plates and incubated at 37° in Dulbecco's modified Eagle's medium supplemented with 20% calf serum. After 24 hr, the medium was replaced with medium supplemented with 0.5% heat-inactivated dialyzed calf serum. The incubation was continued for an additional 72 hr in the presence of 0.1-2 μM minoxidil analogs dissolved in 0.12N HCl; the final concentration of HCl was 0.0012N or 0.0024N. Cells treated with HCl only served as control. During the last 3 hr of incubation, cells received […] ascorbic acid to ensure complete hydroxylation of the polypeptide precursors of procollagen (Murad et al, J. Invest. Dermatol. 75:404 (1980)). At the end of the incubation period, cells were harvested by trypsinization and disrupted by sonication in a buffered medium (Murad et al, J. Biol. Chem. 262:11,973 (1987)).
Lysyl hydroxylase activity in extracts of treated cells was measured with an underhydroxylated procollagen substrate (Murad et al, J. Biol. Chem. 262:11,973 (1987)), which was prepared by labeling cultures of human skin fibroblasts with L-[4,5-^3 H]lysine in the presence of an iron chelator α,α'-dipyridyl (Murad and Pinnell, Conn. Tiss. Res. 13:181 (1985)). The amount of tritium released was quantitated as ^3 HO after vacuum distillation . Prolyl hydroxylase activity was similarly measured with an underhydroxylated procollagen substrate containing L-[4-^3 H]proline (Murad and Pinnell, J. Biol. Chem. 262:11973 (1987); Murad and Pinnell, Conn. Tiss. Res. 13:181 (1985)). The enzyme activities are based on a unit of soluble cell protein. The protein content of cell extracts was determined by a dye-binding techniques using Bio-Rad reagents (Bradford, Anal. Biochem. 72:248 (1976)).
Cells were treated for 72 hr with 1 mM minoxidil or its
structural analogs as indicated. The enzyme activity in extracts
of treated cells was measured by a tritium-release assay and is
expressed as a percentage of HCl-treated control.

Assay [3] has as its system Prolyl Hydroxylations in Human Skin Fibroblasts. Description: Hydroxylation of proline residues in type I procollagen (Hyp/Pro). It counts as cell-based. The note with it: for Hyp/Pro: 72 hr. The protocol: Culture of human skin fibroblasts derived from an apparently normal adult were grown to confluent densities in Dulbecco's modified Eagle's medium supplemented with 10% (v/v) fetal calf serum. Thereafter, the medium was replaced with medium supplemented with 0.5% dialyzed fetal calf serum. […] In some experiments, minoxodil was dissolved in 95% (v/v) ethanol; […]. Cultures treated with ethanol only served as the control.
(§1) During the last 6 hr of treatment, cultures were labeled with 50 μCi of L-[2,3-^3 H]proline (35 Ci/mmol) and 50 μCi of L[U-^14 C]lysine ([…]) in 4 ml of lysine-free medium supplemented with 100 μM ascorbic acid. At the end of the incubation period, the medium was removed and mixed with 1 mM each of EDTA, N-ethylmaleimide, and phenylmethylsulfonylfluoride, and the collagenous proteins were precipitated with 30% (NH4)2 SO4. The cell layer was scraped and extracted with 0.5 M acetic acid containing the protease inhibitors as above. The cell extract was neutralized, and the collagenous proteins were precipitated as above. The (NH4)2 SO4 precipitate from the medium and cell layer was separately dissolved in 0.1% SDS/10 mM Tris-HCl (pH 6.8), reduced with dithiothreitol, and analyzed by electrophoresis on 4% SDS-polyacrylamide gels. The bands corresponding to the proαl(I) and proα2(I) chains from the two fractions were pooled and hydrolyzed with 6 M HCl for 24 hr at 110° C. Proline, hydroxyproline, lysine, and hydroxylysine in the hydrolysate were separated by HPLC (Takimitsa et al, J. Dermatol. 16:37 (1989)), and their radioactivity was determined in a Beckman liquid scintillation counter. To isolate type I procollagen the precipitate from the medium and cell layer was separately dissolved in 25 mM Tris-HCl, pH 7.5, containing 2 M urea and 1 mM each of EDTA, N-ethylmaleimide, and phenylmethylsulfonylfluoride, then chromatographed on a DEAE-cellulose column (Freiberger et al, J. Invest. Dermatol. 75:425 (1980)). The procollagen isolated from the two fractions was pooled, hydrolyzed, and analyzed as above.

The test system of assay [4] is Lysyl Hydroxylations in Human Skin Fibroblasts. Description: Hydroxylation of lysine residues in type I procollagen (Hyl/Lys). Format: cell-based. The settings on record: 0.3 M, 72 hr.
Assay [5] has the same test system. The assay is described as above. It counts as cell-based. The settings on record: for Hyl/Lys: 72 hr. The protocol: Culture of human skin fibroblasts derived from an apparently normal adult were grown to confluent densities in Dulbecco's modified Eagle's medium supplemented with 10% (v/v) fetal calf serum. Thereafter, the medium was replaced with medium supplemented with 0.5% dialyzed fetal calf serum. The cultures were treated for 72 hr with 1 mM minoxidil, 3'- hydroxyminoxidil,or 4'-hydroxyminoxidil (Upjohn) dissolved in aqueous medium. In some experiments, minoxodil was dissolved in 95% (v/v) ethanol; […]. Cultures treated with ethanol only served as the control.
as §1

[6] abbreviates: 1 mM, gel electrophoresis (Table V).
The mark [7] stands for this setting: 1 mM, type I procollagen chains isolated by gel electrophoresis, mean ± range of two experiments (description table).

Turning to `Nc1cc(N2CCCCC2)nc(N)[n+]1[O-]` [Minoxidil], the “prolyl hydroxylase activity (in words)” value in assay [1] (72 hr) is listed as “remained unchanged”. For the same compound, the “Prolyl Hydroxylase Activity” value in assay [1] (72 hr (Table VI)) was 29446 cpm ^3 H2 O/mg protein; in assay [1] (72 hr (description table)), 29446 cpm^3 H2 O/mg protein. Also, the “decrease of the activity of lysyl hydroxylase” value in assay [2] (1 mM, 72 hr) is 73%. In assay [2] (1 mM, 72 hr, % of HCl-treated control (Table III)), the “Lysyl hydroxylase activity (%)” value came to 27%. Moreover, in assay [2] (72 hr (FIG. 4, FIG. 5), read-out: concentration giving 50% inhibition (lysyl hydroxylase)), the IC50 was found to be 200 µM. The Hyp/Pro is given as 0.92 ± .01 in assay [3] (setting [6]); 0.92 ± 0.01 in assay [3] (setting [7]); 0.91 ± .03 in assay [3] (0.3 M, type I procollagen chains isolated by gel electrophoresis, mean ± range (Table IV)). The activity at 1000 µM is 100% in assay [3] (Homo sapiens, Skin fibroblast, 1 mM, 72 hr (Table V), read-out: ratio of hydroxyproline to proline, % control value) and 32% in assay [5] (Homo sapiens, Skin fibroblast, 1 mM, 72 hr (Table V), read-out: ratio of hydroxylysine to lysine, percentage of control value). The “ratio of hydroxyproline to proline (in words)” value in assay [3] (Table IV text) is on record as “remained unaltered”. For the same compound, the Hyl/Lys amounted to 0.08 ± 0.02 in assay [4] (type I procollagen chains isolated by gel electrophoresis, mean ± range (Table IV)); 0.17 in assay [4] (type I procollagen isolated by column chromatography (Table IV)); 0.07 ± 0.02 in assay [5] (setting [6]); 0.07 ± 0.02 in assay [5] (setting [7]). The “ratio of hydroxylysine to lysine, % of control” value in assay [5] (procollagen isolated by column chromatography, 4320 min) worked out at 50%. Moreover, the “ratio of hydroxylysine to lysine, % of control value” in assay [5] (procollagen isolated by gel chromatography (so in the source), 4320 min) is 27%.
